Assay results as given in US7741340B2, “Hydroxy piperidine derivatives to treat gaucher disease” (Amicus Therapeutics, Inc., priority 2003, dated 2010).

Tests used:
human GCase = human GCase (Homo sapiens, UniProt P04062); assay: Inhibitory activity against GCase (4-methylumbelliferyl β-glucoside substrate); format: biochemical; conditions: for IC50: 4-methylumbelliferyl β-glucoside at 3 mM, pH 5.2, 37° C., 30 min
[1] = shortly after the start of the treatment; cited from earlier work
[2] = test system: Fibroblasts established from Gaucher patients with N370S/N370S mutation; assay: Chaperone rescue of residual GCase activity in Gaucher fibroblasts; format: cell-based, human; conditions: N370S homozygous fibroblasts, cultured 4 days with compound, at optimal concentration

Sequence of human GCase (P04062 40-536): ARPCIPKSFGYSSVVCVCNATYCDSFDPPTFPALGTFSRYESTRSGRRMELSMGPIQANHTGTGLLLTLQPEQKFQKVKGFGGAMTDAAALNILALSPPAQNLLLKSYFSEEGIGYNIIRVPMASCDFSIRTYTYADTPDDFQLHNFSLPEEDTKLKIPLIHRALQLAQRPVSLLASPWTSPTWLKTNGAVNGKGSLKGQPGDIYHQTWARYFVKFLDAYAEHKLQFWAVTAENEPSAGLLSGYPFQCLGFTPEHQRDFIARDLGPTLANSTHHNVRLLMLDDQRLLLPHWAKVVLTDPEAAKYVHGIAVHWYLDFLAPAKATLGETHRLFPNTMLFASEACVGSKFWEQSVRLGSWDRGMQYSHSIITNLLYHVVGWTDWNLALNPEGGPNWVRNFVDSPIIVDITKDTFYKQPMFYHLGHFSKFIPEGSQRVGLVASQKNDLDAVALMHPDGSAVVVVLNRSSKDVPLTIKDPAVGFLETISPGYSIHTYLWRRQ

Row | Molecule | IC50 (human GCase) | also measured
1 | N-nonyl hydroxypiperidine [reference compound] | > 100000 nM | –
2 | CCCC[C@@H]1NC[C@@H](O)[C@H](O)[C@H]1CO [Compound 11, (3R, 4R, 5R, 6S)-5-(Hydroxymethyl)-6-n-butyl-3,4-dihydroxypiperidine] | 160 nM | effect of 6-C substitution on potency towards GCase (human GCase; compared with the parent hydroxypiperidine): did not affect the potency
3 | CCCCCCCC[C@@H]1NC[C@@H](O)[C@H](O)[C@H]1CO [Compound 14, (3R, 4R, 5R, 6S)-5-(Hydroxymethyl)-6-n-octyl-3,4-dihydroxypiperidine] | 0.8 nM | –
4 | N-butyl hydroxypiperidine [reference compound] | 44000 nM | –
5 | CCCCN1CC(O)C(O)C(O)C1CO (stereo not shown) [N-butyl 1-deoxynojirimycin] | – | patients with diarrhea (most frequent adverse effect) [1]: 79%
6 | CCCCCCC[C@@H]1NC[C@@H](O)[C@H](O)[C@H]1CO [Compound 13, (3R, 4R, 5R, 6S)-5-(Hydroxymethyl)-6-n-heptyl-3,4-dihydroxypiperidine] | 1.8 nM | –
7 | CCCCCC[C@@H]1NC[C@@H](O)[C@H](O)[C@H]1CO [Compound 12, (3R, 4R, 5R, 6S)-5-(Hydroxymethyl)-6-n-hexyl-3,4-dihydroxypiperidine] | 4.2 nM | increase in potency over IFG (human GCase; relative to IFG): approximately 13 fold
8 | OC[C@H]1CNC[C@@H](O)[C@@H]1O [hydroxypiperidine, isofagomine] | – | increase of residual enzyme activity in patient cells [2]: approximately 2 fold
